Where two headings read alike, the source gives them in different places.
Tests used:
leukotriene D4 receptors [1] = biological target: T1, leukotriene D4 receptors (Cavia porcellus, UniProt Q2NNR5); test: Inhibition of LTD4-induced contraction of isolated guinea-pig ileum; design: A piece of ileum (about 2 cm length) isolated from guinea-pigs; from tissue; host or cells: guinea-pig ileum
T1 sequence (Q2NNR5 1-340): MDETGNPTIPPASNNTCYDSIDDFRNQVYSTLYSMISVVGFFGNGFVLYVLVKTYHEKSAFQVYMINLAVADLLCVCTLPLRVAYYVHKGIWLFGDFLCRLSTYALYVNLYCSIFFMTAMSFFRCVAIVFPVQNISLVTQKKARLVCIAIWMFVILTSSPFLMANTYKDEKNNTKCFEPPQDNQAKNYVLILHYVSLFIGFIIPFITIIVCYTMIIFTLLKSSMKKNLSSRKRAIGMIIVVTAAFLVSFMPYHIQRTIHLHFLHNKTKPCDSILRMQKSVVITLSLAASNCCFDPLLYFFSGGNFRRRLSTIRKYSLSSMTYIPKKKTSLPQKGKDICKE
Description: (§1) (1) Inhibition of histamine-or LTD4 -induced contraction
(§2) The first three dose-response experiments are performed by adding histamine or leukotriene D4 cumulatively to the organ bath. After adequate washing, the ileal strip is incubated with the testing compound for 30 min. The dose-response experiment is then conducted again. The dissociation constant (Kb) of the receptor-antagonist complex is used as the parameter to indicate the potency of the testing compound and is calculated according to the Cheng-Prusoff equation.

leukotriene D4 receptors [2] = biological target: T1, leukotriene D4 receptors; test: Inhibition of [3H]LTD4 binding to guinea-pig lung membranes (and saturation experiment); design: guinea-pig lung membrane proteins; from tissue; host or cells: guinea-pig lung membranes
Description: The method is a modification of that described in the literature*. […] The piperazine-N,N'-bis(2-ethanesulfonic)acid buffer contains 10 mM CaCl2, 10 mM MgCl2, 50 mM NaCl, 2 mM cysteine and 2 mM glycine. The reaction was terminated by the addition of 5 ml ice-cold tris-HCl/NaClbuffer (10 mM/, pH 7.5). The mixture was immediately filtered under vacuum (Whatman GF/C filters) and the filters was washed once with 20 ml ice-cold buffer. The retained radioactivity was determined by a liquid scintillation counter.
In the saturation experiment, 2 μM LTD4 was used to define the non-specific binding.

histamine H1 receptors [3] = biological target: T2, histamine H1 receptors (Cavia porcellus, UniProt P31389); test: Inhibition of histamine-induced contraction of isolated guinea-pig ileum; conditions: 30 min incubation with compound, 37° C.; for Kb: read-out: activity on histamine H1 receptors, pA2 (functional) (converted)
T2 construct: guinea-pig cerebellum membrane proteins; from tissue; host or cells: guinea-pig cerebellum membranes
Description: as §1, §2

histamine H1 receptors [4] = biological target: T2, histamine H1 receptors; test: Inhibition of [3H]mepyramine binding to guinea-pig cerebellum membranes (and saturation experiment); conditions: 0.5 nM [3H]mepyramine, pH 7.5, 37° C., 30 min
Description: The method is based on that described previously. […] The reaction was stopped by the addition of 5 ml ice-cold phosphate buffer and followed by immediate filtration through Whatman GF/C filters. The filters were washed twice with about 20 ml cold buffer. The retained radioactivity was determined by a liquid scintillation counter after addition of 5 ml scintillation liquid.
In the saturation experiment, 10^-4 MR(-)dimethindene was used to define the non-specific binding.

[5] = 0.2 nM [3H]-LTD4, guinea-pig lung membranes, pH 7.5, 22° C., 30 min
[6] = guinea-pig ileum, LTD4-induced contraction, 30 min incubation with compound, 37° C., read-out: activity on leukotriene D4 receptors, pA2 (functional) (converted)

T2 sequence (P31389 whole entry): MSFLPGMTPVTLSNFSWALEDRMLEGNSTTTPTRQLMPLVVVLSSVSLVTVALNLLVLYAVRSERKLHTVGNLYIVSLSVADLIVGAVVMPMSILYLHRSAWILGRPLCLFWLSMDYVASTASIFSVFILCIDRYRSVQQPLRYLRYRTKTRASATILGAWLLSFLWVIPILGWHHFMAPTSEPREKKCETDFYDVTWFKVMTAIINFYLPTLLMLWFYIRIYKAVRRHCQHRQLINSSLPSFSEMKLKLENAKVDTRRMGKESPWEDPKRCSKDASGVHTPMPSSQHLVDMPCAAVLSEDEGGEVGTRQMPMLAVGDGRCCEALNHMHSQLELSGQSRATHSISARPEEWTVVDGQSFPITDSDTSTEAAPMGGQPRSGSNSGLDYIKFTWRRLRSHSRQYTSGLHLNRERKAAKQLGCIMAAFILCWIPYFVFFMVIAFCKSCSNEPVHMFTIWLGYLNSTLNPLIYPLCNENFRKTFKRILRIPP

Row | Kb (leukotriene D4 receptors [1]; [6]) [µM] | Kd (leukotriene D4 receptors [2]; [5]) [µM] | Kb (histamine H1 receptors [3]) [µM] | Kd (histamine H1 receptors [4]) [µM] | Compound | further results
1 |  |  |  |  | CC(C)(C)c1ccc(C(O)CCCN2CCC(C(O)(c3ccccc3)c3ccccc3)CC2)cc1 (stereo not shown) [terfenadine, reference compound] | activity on leukotriene D4 receptors, pA2 (functional) (leukotriene D4 receptors [1]; guinea-pig ileum, LTD4-induced contraction, 30 min incubation with compound, 37° C.): not active; activity on leukotriene D4 receptors, KD (binding) (leukotriene D4 receptors [2]; [5]): not active
2 | 0.141 | 1.55 | 0.01 | 0.412 | O=C(N[C@H](CN1CCC(=C2c3ccccc3CCc3ccccc32)CC1)C(=O)O)OCc1ccccc1 [Example 8, (R)-2-Benzyloxycarbonylamino-3-[4-(10,11-dihydro-5H-dibenzo[a,d]-cyclohepten-5-ylidene)piperidin-1-yl]propionic acid] | 
3 |  |  |  |  | CCCc1c(OCC(O)COc2ccc3c(=O)cc(C(=O)O)oc3c2CCC)ccc(C(C)=O)c1O (stereo not shown) [FPL55712, reference compound] | Kb (leukotriene D4 receptors [1]): 0.12 µM; activity on histamine H1 receptors, pA2 (functional) (histamine H1 receptors [3]): not active; activity on histamine H1 receptors, KD (binding) (histamine H1 receptors [4]): not active
4 |  |  | 0.0427 | 0.147 | O=C(N[C@@H](CN1CCC(=C2c3ccccc3C=Cc3ccccc32)CC1)C(=O)O)OCc1ccccc1 [Example 6, (S)-2-Benzyloxycarbonylamino-3-[4-(5H-dibenzo[a,d]cyclohepten-5-ylidene)piperidin-1-yl]propionic acid] | inhibition at 10 µM (leukotriene D4 receptors [2]; drug at the concentration of 10^-5 M, guinea-pig receptor preparations): 28%
5 | 1.12 | 6.8 | 0.0331 | 0.871 | O=C(N[C@@H](CN1CCC(=C2c3ccccc3CCc3ccccc32)CC1)C(=O)O)OCc1ccccc1 [Example 7, (S)-2-Benzyloxycarbonylamino-3-[4-(10,11-dihydro-5H-dibenzo[a,d]cyclohepten-5-ylidene)-piperidin-l-yl]propionic acid] | 

From patent US5714501A, “Piperidine derivatives” (priority 1995, dated 1998)
